Laboratory results taken from patent US20200323225A1, “LIPASE INHIBITORS TO PREVENT RANCIDITY IN EXPRESSED HUMAN MILK DURING STORAGE” (STC.UNM, priority 2017, published 2020).

Tests used:
[1] = tested on: LPL; experiment: Lipase activity inhibition in raw milk samples after incubation with Orlistat; type: biochemical; details: raw milk samples (n=2); 10 μM Orlistat; incubated 1 h (FIG. 4)
Description: FIG. 4 is a graph sowing lipase activity inhibition after incubation with Orlistat. […] LPL activity in milk spiked with 6 pmol LPL and increasing levels of Orlistat (an LPL inhibitor) was monitored over the course of 20 min (FIG. 3). […] Raw milk samples were also treated with this level of Orlistat (10 μM) (FIG. 4).

[2] = molecular target: T1, LPL (Homo sapiens, UniProt P06858); experiment: LPL activity in milk spiked with 6 pmol LPL, with increasing levels of Orlistat; type: biochemical; details: 10 μM Orlistat, monitored over 20 min (FIG. 3)
T1 sequence (P06858 28-475): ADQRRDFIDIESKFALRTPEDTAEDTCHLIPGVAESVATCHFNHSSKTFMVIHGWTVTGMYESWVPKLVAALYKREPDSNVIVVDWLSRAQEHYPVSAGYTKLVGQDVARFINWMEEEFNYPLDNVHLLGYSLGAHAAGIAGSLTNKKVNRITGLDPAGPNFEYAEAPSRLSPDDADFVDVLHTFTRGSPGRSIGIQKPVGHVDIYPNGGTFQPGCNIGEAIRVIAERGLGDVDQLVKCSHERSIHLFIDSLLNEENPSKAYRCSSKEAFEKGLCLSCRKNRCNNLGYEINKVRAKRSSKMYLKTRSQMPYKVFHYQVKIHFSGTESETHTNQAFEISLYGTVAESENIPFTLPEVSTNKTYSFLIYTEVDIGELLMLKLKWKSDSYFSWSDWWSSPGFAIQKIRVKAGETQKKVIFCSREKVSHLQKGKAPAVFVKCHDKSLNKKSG
Description: FIG. 3 is a graph showing measurement of LPL activity in milk spiked with 6 pmol LPL in the absence or presence of LPL inhibitor, Orlistat.
LPL activity in milk spiked with 6 pmol LPL and increasing levels of Orlistat (an LPL inhibitor) was monitored over the course of 20 min (FIG. 3). […] Raw milk samples were also treated with this level of Orlistat (10 μM) (FIG. 4).

## CCCCCCCCCCC[C@@H](C[C@@H]1OC(=O)[C@H]1CCCCCC)OC(=O)[C@H](CC(C)C)NC=O [Orlistat]
[1]
  decrease in lipase activity (LPL): 22%
[2]
  reduction in LPL activity: most significant reduction in LPL
